Assay results published in patent US9187496B2 (priority 2009, dated 2015).
Read-outs that look alike come from different tables or passages of the source.

Columns and labels:
[1] = Cytotoxicity evaluation in GS4.1 cells (Cell Titer 96 AQueous One); assay type: cell-based, human; conditions: human, cellular viability
Protocol: (§1) For cytotoxicity evaluation, GS4.1 cells were treated with compounds as described above and cellular viability was monitored using the Cell Titer 96 AQueous One Solution Cell Proliferation Assay (Promega). CC50 values were determined from the % cytotoxicity versus concentration data with Tecan Magellan software as described above.

[2] = system: Huh-7 cells containing HCV Con1 subgenomic replicon (GS4.1 cells); test: HCV replicon assay (NS5A ELISA); assay type: cell-based; conditions: Hepatitis C virus, Huh-7; GS4.1 cells, 72 hrs, NS5A ELISA; read-out: EC50
Protocol: General Procedure: Huh-7 cells containing HCV Con1 subgenomic replicon (GS4.1 cells) were grown in Dulbecco's Modified Eagle Medium (DMEM) supplemented with 10% fetal bovine serum (FBS), 2 mM L-glutamine, 110 mg/L sodium pyruvate, 1× non-essential amino acids, 100 U/mL penicillin-streptomycin, and 0.5 mg/mL G418 (Invitrogen). For dose-response testing, the cells were seeded in 96-well plates at 7.5×10^3 cells/well in a volume of 50 μL, and incubated at 37° C./5% CO2. Three hours after plating, 50 μL of ten 2-fold serial dilutions of compounds (highest concentration, 75 μM) were added, and cell cultures were incubated at 37° C./5% CO2 in the presence of 0.5% DMSO. Alternatively, compounds were tested at a single concentration of 15 μM. In all cases, Huh-7 cells lacking the HCV replicon served as negative control. The cells were incubated in the presence of compounds for 72 hrs after which they were monitored for expression of the NS5A protein by enzyme-linked immunosorbent assay (ELISA). For this, the plates were then fixed for 1 min with acetone/methanol (1:1, v/v), washed twice with phosphate-buffered saline (PBS), 0.1% Tween 20, blocked for 1 hr at room temperature with TNE buffer containing 10% FBS and then incubated for 2 hr at 37° C. with the anti-NS5A mouse monoclonal antibody A-236 (ViroGen) diluted in the same buffer. After washing three times with PBS, 0.1% Tween 20, the cells were incubated 1 hr at 37° C. with anti-mouse immunoglobulin G-peroxidase conjugate in TNE, 10% FBS. After washing as described above, the reaction was developed with O-phenylenediamine (Zymed). The reaction was stopped after 30 min with 2 N H2SO4, and absorbance was read at 492 nm using Sunrise Tecan spectrophotometer. EC50 values were determined from the % inhibition versus concentration data using a sigmoidal non-linear regression analysis based on four parameters with Tecan Magellan software.

[3] = system: HCV genotype 1b Conl strain subgenomic luciferase replicon (Zluc); test: Luciferase replicon assay, genotype 1b; assay type: cell-based; conditions: Hepatitis C virus, 72 h, read-out: EC50 1b
Protocol: (§2) The HCV luciferase replicon assay measures the ability of a test compound to inhibit HCV replication in cell culture after 3 days of treatment in a human hepatoma cell line (Huh-7) bearing a HCV replicon containing a luciferase-neomycin phosphotransferase fusion gene. The inhibition of HCV replication was measured by quantification of luciferase protein expression. Briefly, Huh-7 cells containing either the HCV genotype 1a H77 strain or genotype 1b Conl strain subgenomic luciferase replicon (H1a-luc or Zluc, respectively) were grown in DMEM containing glucose, L-glutamine and sodium pyruvate, 10% fetal bovine serum (FBS), 100 IU/mL penicillin, 100 μg/mL streptomycin, 2 mM GlutaMAX, non-essential amino acids and 0.25 (H1a-luc) or 0.5 (Zluc) mg/mL G418. GlutaMAX was obtained from Invitrogen, Corp.; all other media reagents were obtained from Mediatech, Inc. For dose-response testing, the cells were seeded in 96-well plates at 1×10^4 (H1a-luc) or 7.5×10^3 (Zluc) cells/well in a volume of 50 μL, and incubated at 37° C./5% CO2. Three hours after plating, 50 μL of ten 5-fold serial dilutions of compound were added, and cell cultures were incubated at 37° C./5% CO2 for 72 hours. In all cases, Huh-7 cells lacking the HCV replicon served as negative control. To assess luciferase expression, the media/compound was removed from the plates and ONE-glo Luciferase assay reagent (Promega) was added to each well. The assay plates were shaken for 3 minutes at room temperature and luciferase activity for each well was measured with a 1 sec read time on the Victor^3V multilabel counter using a 700 nm cut-off filter (Perkin Elmer). EC50 values were calculated from dose response curves from the resulting best-fit equations determined by Microsoft Excel and XLfit 4.1 software.

GS4.1 cells = test: Cytotoxicity evaluation in GS4.1 cells (Cell Titer 96 AQueous One); assay type: cell-based, human; conditions: cellular viability
Protocol: as §1

[4] = system: HCV genotype 3a-specific NS5A gene within the 1b-replicon; test: Luciferase replicon assay, NS5A-intergenotypic stable cell line genotype 3a; assay type: cell-based; conditions: Hepatitis C virus, read-out: EC50 3a
Description: (§3) The nucleotide sequences of the NS5A region of genotype 2a (GenBank Accession #AB047639), genotype 3a (GenBank Accession #D17763), and genotype 4a (GenBank Accession#DQ418788) were synthesized by an outside vendor. The NS5A region of each of these genotypes included the first 11 amino acids of the protease recognition sequence of genotype 1b, as well as the last 10 amino acids of genotype 1b. The NS5A gene cassettes were excised with site specific restriction endonucleases and ligated into a ZS11-luciferase genotype 1b backbone (backbone contains the genotype 1b NS3 protease, NS4a, NS4b, and NS5b coding regions) with similarly cut restriction enzyme sites. Thus, the newly constructed plasmid contains a genotype 2a-, 3a- or 4a-specific NS5A gene within the 1b-replicon.
(§4) These new intergenotypic plasmids were used to establish stable cell lines. RNA was generated from the NS5A intergenotypic plasmids and used in conjunction with a lipofectin reagent to transfect a cured Huh7 cell line. Transfected cells were selected for with G418. After selection has occurred the stable cell lines were propagated, tested for luciferase activity, and RT-PCR with genotype specific primers (either 1a, 2a, 3a, or 4a). Stable cell lines containing the intergenotypic replicon were then fully sequenced and analysed for proper expression of NS3, NS5A and NS5B proteins.
(§5) Drug titration analysis was performed using the luciferase replicon assay described herein.
as §2

[5] = system: HCV genotype 2a-specific NS5A gene within the 1b-replicon; test: Luciferase replicon assay, NS5A-intergenotypic stable cell line genotype 2a; assay type: cell-based; conditions: Hepatitis C virus, read-out: EC50 2a
Description: as §3, §4, §5, §2

[6] = Cytotoxicity evaluation in luciferase replicon cells (Cell Titer 96 AQueous One); assay type: cell-based, human; conditions: human; Table 1B, cellular viability
Protocol: For cytotoxicity evaluation, H1a-luc or Zluc cells were treated with compounds as described above and cellular viability was monitored using the Cell Titer 96 AQueous One Solution Cell Proliferation Assay (Promega). Plates were then read at 490 nm in a Victor^3V 1420 multilabel counter (Perkin Elmer) and CC50 concentrations were determined using Microsoft Excel and XLfit 4.1 software.

[7] = system: HCV genotype 4a-specific NS5A gene within the 1b-replicon; test: Luciferase replicon assay, NS5A-intergenotypic stable cell line genotype 4a; assay type: cell-based; conditions: Hepatitis C virus, read-out: EC50 4a
Description: as §3, §4, §5, §2

[8] = system: HCV genotype 1a H77 strain (H1a-luc replicon / 1a-H77NS5a intergenotypic replicon); test: Luciferase replicon assay, genotype 1a; assay type: cell-based
Description: To generate the 1a-H77NS5a intergenotypic plasmid, dual cut sites were inserted into the ZS11-luciferase genotype 1b backbone that would bracket the NS5a region almost in its entirety. Using PCR and 1a-H77 specific primers also containing the corresponding restriction enzyme sites, the NS5a gene was amplified from the 1a-H77 replicon. The ZS11-luciferase genotype 1b backbone and the genotype 1a NS5a PCR products were restriction enzyme digested and then ligated using standard molecular cloning techniques. The newly constructed plasmid contains the genotype 1a-specific NS5a gene where as the backbone remains 1b as described herein.
as §4, §5, §2

[9] = Hepatitis C virus, read-out: EC50 1a, genotype 1a

Structure (SMILES)	CC50 [1] [nM]	EC50 [2] [nM]	EC50 [3] [nM]	CC50 (GS4.1 cells) [nM]	EC50 [4] [nM]	EC50 [5] [nM]	CC50 at 72 h [6] [nM]	EC50 [7] [nM]	EC50 [8, 9] [nM]	EC50 ([8]; read-out: EC50 1a, genotype 1a) [nM]
COC(=O)N[C@@H](C(=O)N1CCCC1c1ncc(-c2cn3cc(-c4ccc(-c5cnc([C@@H]6CCCN6C(=O)[C@H](NC(=O)OC)c6ccccc6)[nH]5)cc4)nc3s2)[nH]1)c1ccccc1 (some centres unmarked) [A60]	> 75000	< 1								
COC(=O)N[C@H](C(=O)N1CCC[C@H]1c1ncc(-c2ccc(-c3cc4sc(-c5cnc([C@@H]6CCCN6C(=O)[C@@H](NC(=O)OC)C(C)C)[nH]5)cc4s3)cc2)[nH]1)C(C)C [Compound A126, [(S)-1-((S)-2-{5-[4-(5-{2-[(S)-1-((S)-2-Methoxycarbonylamino-3-methyl-butyryl)-pyrrolidin-2-yl]-3H-imidazol-4-yl}-thieno[3,2-b]thiophen-2-yl)-phenyl]-1H-imidazol-2-yl}-pyrrolidine-1-carbonyl)-2-methyl-propyl]-carbamic acid methyl ester]		< 1	< 0.1	> 75000	1 to 10	0.1 to 1	> 75000	< 0.1		
COC(=O)N[C@H](C(=O)N1CCC[C@H]1c1ncc(-c2ccc(-c3csc4c(-c5cnc([C@@H]6CCCN6C(=O)[C@H](NC(=O)OC(C)(C)C)c6ccccc6)[nH]5)csc34)cc2)[nH]1)C(C)C [Compound A111, [(S)-1-((S)-2-{4-[4-(6-{(S)-2-[1-((R)-2-tert-butoxycarbonylamino-2-phenyl-acetyl)-pyrrolidin-2-yl]-3H-imidazol-4-yl}-thieno[3,2-b]thiophen-3-yl)-phenyl]-1H-imidazol-2-yl}-pyrrolidine-1-carbonyl)-2-methyl-propyl]-carbamic acid methyl ester]		< 1	< 0.1	> 75000	< 0.1	< 0.1	> 75000	< 0.1		
COC(=O)NC(C(=O)N1CCCC1c1ncc(-c2cc3sc(-c4ccc5[nH]c(C6CCCN6C(=O)C(NC(=O)OC)C(C)C)nc5c4)cc3s2)[nH]1)C(C)C (stereo in doubt) [Compound A176, ((S)-1-{(S)-2-[5-(5-{(S)-2-[1-((S)-2-methoxycarbonylamino-3-methyl-butyryl)-pyrrolidin-2-yl]-3H-benzoimidazol-5-yl}-thieno[3,2-b]thiophen-2-yl)-1H-imidazol-2-yl]-pyrrolidine-1-carbonyl}-2-methyl-propyl)-carbamic acid methyl ester]			< 0.1		0.1 to 1	0.1 to 1	10000 to 75000	0.1 to 1	0.1 to 1	
COC(=O)N[C@H](C(=O)N1CCC[C@H]1c1ncc(-c2ccc(-c3csc4c(-c5cnc([C@@H]6CCCN6C(=O)[C@@H](NC(=O)OC)C(C)C)[nH]5)csc34)cc2)[nH]1)C(C)C [Compound A15, [(S)-1-((S)-2-{4-[4-(6-{2-[(S)-1-((S)-2-methoxycarbonylamino-3-methyl-butyryl)-pyrrolidin-2-yl]-3H-imidazol-4-yl}-thieno[3,2-b]thiophen-3-yl)-phenyl]-1H-imidazol-2-yl}-pyrrolidine-1-carbonyl)-2-methyl-propyl]-carbamic acid methyl ester]	10000 to 75000	< 1	< 0.1		0.1 to 1	< 0.1	10000 to 75000	< 0.1	< 0.1	
COC(=O)N[C@H](C(=O)N1CCC[C@H]1c1nc2ccc(-c3csc4c(-c5ccc6nc([C@@H]7CCCN7C(=O)[C@H](NC(=O)OC)c7ccccc7)[nH]c6c5)csc34)cc2[nH]1)C(C)C [Compound A208]			< 0.1		< 0.1	< 0.1	> 75000	< 0.1	< 0.1	
COC(=O)N[C@H](C(=O)N1CCC[C@H]1c1ncc(-c2ccc(-c3cc4sc(-c5ccc6[nH]c([C@@H]7CCCN7C(=O)[C@H](NC(=O)OC)c7ccccc7)nc6c5)cc4s3)cc2)[nH]1)C(C)C [Compound A194, [(S)-1-((S)-2-{4-[4-(5-{(S)-2-[1-((R)-2-methoxycarbonylamino-2-phenyl-acetyl)-pyrrolidin-2-yl]-3H-benzoimidazol-5-yl}-thieno[3,2-b]thiophen-2-yl)-phenyl]-1H-imidazol-2-yl}-pyrrolidine-1-carbonyl)-2-methyl-propyl]-carbamic acid methyl ester]			< 0.1		0.1 to 1	1 to 10	> 75000	< 0.1	0.1 to 1	
COC(=O)N[C@H](C(=O)N1CCC[C@H]1c1nc(-c2ccc(-c3csc4c(Br)csc34)cc2)c[nH]1)C(C)C [Compound A155, [(S)-1-((S)-2-{4-[4-(6-bromo-thieno[3,2-b]thiophen-3-yl)-phenyl]-1H-imidazol-2-yl}-pyrrolidine-1-carbonyl)-2-methyl-propyl]-carbamic acid methyl ester]	10000 to 75000	10 to 100								
COC(=O)N[C@H](C(=O)N1CCCC1c1ncc(-c2csc3c(-c4ccc(-c5cnc(C6CCCN6C(=O)[C@H](NC(=O)OC)c6ccccc6)[nH]5)cc4)csc23)[nH]1)C(C)C (some centres unmarked) [Compound A114]			< 0.1		< 0.1	< 0.1		< 0.1	0.1 to 1	< 0.1
